# In patent US20110053773A1, “METHODS OF IMPROVING NUTRITIONAL VALUE OF PLANTS” (UNIVERSITY OF TENNESSEE RESEARCH FOUNDATION, priority 2009, published 2011):
# Assays:
# Type in all cases: in vivo
# [1] = test system: sweet corn variety WH0809; experiment: Visual injury of sweet corn after POST herbicide inhibitors of photosynthesis (Example 2)
# Protocol: (§1) A field study was conducted at Greenback, TN to investigate POST applications of several herbicide inhibitors of photosynthesis for sweet corn safety and for changes in carbohydrate content in the kernels of sweet corn among treatments. Treatments included bentazon at 1120 and 2240 g ai/ha, linuron at 280 and 560 g ai/ha, metribuzin at 105 and 210 g ai/ha, and bromoxynil at 560 and 1120 g ai/ha. All treatments included a PRE application of a common residual corn herbicide in order to maintain weed free conditions. […] Sweet corn was harvested from the center two rows of each four row plot and weighed in the husk. Eight ears of corn were harvested from each plot and were pooled over replicates for analysis of key carbohydrates which included the sugars sucrose, fructose, glucose, maltose, and raffanose.
# [2] = test system: sweet corn variety WH0809; experiment: Sweet corn yield, harvested and weighed in the husk (Example 2); details: treated check 9758.4
# Protocol: as §1
# [3] = test system: sweet corn variety WH0809; experiment: Sugar content of sweet corn kernels (Example 2); details: for Sugar content Raffanose: treated check 0.51; for Sugar content Maltose: treated check 0.61; for Sugar content Fructose: treated check 1.04; for Sugar content Glucose: treated check 1.91; for Sugar content Sucrose: treated check 10.72
# Protocol: as §1
# [4] = 560 g ai/ha + COC 1% v/v POST, 1st of 3 Injury columns, rating date not given
# [5] = 560 g ai/ha + COC 1% v/v POST, 2nd of 3 Injury columns (agrees with 14 DAT of b67)
# [6] = 560 g ai/ha + COC 1% v/v POST, 3rd of 3 Injury columns, rating date not given
smiles,measurement,setting,value
"N#Cc1cc(Br)c(O)c(Br)c1 [BROMOXYNIL, bromoxynil]",Injury,[1]; [4],37%
same,Injury,[1]; [5],35%
same,Injury,[1]; [6],27%
same,Injury,"[1]; 1120 g ai/ha + COC 1% v/v POST, 1st of 3 Injury columns, rating date not given",45%
same,Injury,"[1]; 1120 g ai/ha + COC 1% v/v POST, 2nd of 3 Injury columns (agrees with 14 DAT of b67)",47%
same,Injury,"[1]; 1120 g ai/ha + COC 1% v/v POST, 3rd of 3 Injury columns, rating date not given",35%
same,YIELD,[2]; 560 g ai/ha + COC 1% v/v POST,9436.2 kg
same,YIELD,[2]; 1120 g ai/ha + COC 1% v/v POST,9142.6 kg
same,Sugar content Raffanose,[3]; 560 g ai/ha + COC 1% v/v POST,0.77 mg/g dw
same,Sugar content Maltose,[3]; 560 g ai/ha + COC 1% v/v POST,0.88 mg/g dw
same,Sugar content Fructose,[3]; 560 g ai/ha + COC 1% v/v POST,1.74 mg/g dw
same,Sugar content Glucose,[3]; 560 g ai/ha + COC 1% v/v POST,3.07 mg/g dw
same,Sugar content Sucrose,[3]; 560 g ai/ha + COC 1% v/v POST,15.56 mg/g dw
same,Sugar content Raffanose,[3]; 1120 g ai/ha + COC 1% v/v POST,0.54 mg/g dw
same,Sugar content Maltose,[3]; 1120 g ai/ha + COC 1% v/v POST,0.60 mg/g dw
same,Sugar content Fructose,[3]; 1120 g ai/ha + COC 1% v/v POST,1.77 mg/g dw
same,Sugar content Glucose,[3]; 1120 g ai/ha + COC 1% v/v POST,2.70 mg/g dw
same,Sugar content Sucrose,[3]; 1120 g ai/ha + COC 1% v/v POST,14.50 mg/g dw
"CON(C)C(=O)Nc1ccc(Cl)c(Cl)c1 [LINURON, linuron]",Injury,"[1]; 280 g ai/ha + COC 1% v/v POST, 1st of 3 Injury columns, rating date not given",25%
same,Injury,"[1]; 280 g ai/ha + COC 1% v/v POST, 2nd of 3 Injury columns (agrees with 14 DAT of b67)",22%
same,Injury,"[1]; 280 g ai/ha + COC 1% v/v POST, 3rd of 3 Injury columns, rating date not given",25%
same,Injury,[1]; [4],38%
same,Injury,[1]; [5],35%
same,Injury,[1]; [6],27%
same,YIELD,[2]; 280 g ai/ha + COC 1% v/v POST,8062.6 kg
same,YIELD,[2]; 560 g ai/ha + COC 1% v/v POST,9227.9 kg
same,Sugar content Raffanose,[3]; 280 g ai/ha + COC 1% v/v POST,0.64 mg/g dw
same,Sugar content Maltose,[3]; 280 g ai/ha + COC 1% v/v POST,0.95 mg/g dw
same,Sugar content Fructose,[3]; 280 g ai/ha + COC 1% v/v POST,1.86 mg/g dw
same,Sugar content Glucose,[3]; 280 g ai/ha + COC 1% v/v POST,3.22 mg/g dw
same,Sugar content Sucrose,[3]; 280 g ai/ha + COC 1% v/v POST,12.02 mg/g dw
same,Sugar content Raffanose,[3]; 560 g ai/ha + COC 1% v/v POST,0.48 mg/g dw
same,Sugar content Maltose,[3]; 560 g ai/ha + COC 1% v/v POST,0.59 mg/g dw
same,Sugar content Fructose,[3]; 560 g ai/ha + COC 1% v/v POST,1.39 mg/g dw
same,Sugar content Glucose,[3]; 560 g ai/ha + COC 1% v/v POST,2.33 mg/g dw
same,Sugar content Sucrose,[3]; 560 g ai/ha + COC 1% v/v POST,13.30 mg/g dw
"CSc1nnc(C(C)(C)C)c(=O)n1N [METRIBUZIN, metribuzin]",Injury,"[1]; 105 g ai/ha + COC 1% v/v POST, 1st of 3 Injury columns, rating date not given",12%
same,Injury,"[1]; 105 g ai/ha + COC 1% v/v POST, 2nd of 3 Injury columns (agrees with 14 DAT of b67)",13%
same,Injury,"[1]; 105 g ai/ha + COC 1% v/v POST, 3rd of 3 Injury columns, rating date not given",5%
same,Injury,"[1]; 210 g ai/ha + COC 1% v/v POST, 1st of 3 Injury columns, rating date not given",17%
same,Injury,"[1]; 210 g ai/ha + COC 1% v/v POST, 2nd of 3 Injury columns (agrees with 14 DAT of b67)",30%
same,Injury,"[1]; 210 g ai/ha + COC 1% v/v POST, 3rd of 3 Injury columns, rating date not given",22%
same,YIELD,[2]; 105 g ai/ha + COC 1% v/v POST,10715.4 kg
same,YIELD,[2]; 210 g ai/ha + COC 1% v/v POST,8967.5 kg
same,Sugar content Raffanose,[3]; 105 g ai/ha + COC 1% v/v POST,0.36 mg/g dw
same,Sugar content Maltose,[3]; 105 g ai/ha + COC 1% v/v POST,0.49 mg/g dw
same,Sugar content Fructose,[3]; 105 g ai/ha + COC 1% v/v POST,1.04 mg/g dw
same,Sugar content Glucose,[3]; 105 g ai/ha + COC 1% v/v POST,1.79 mg/g dw
same,Sugar content Sucrose,[3]; 105 g ai/ha + COC 1% v/v POST,9.35 mg/g dw
same,fructose increase compared to the untreated check,[3]; 210 g ai/ha,115%
same,glucose increase compared to the untreated check,[3]; 210 g ai/ha,106%
same,maltose increase compared to the untreated check,[3]; 210 g ai/ha,74%
same,raffanose increase compared to the untreated check,[3]; 210 g ai/ha,59%
same,sucrose increase compared to the untreated check,[3]; 210 g ai/ha,103%
same,Sugar content Raffanose,[3]; 210 g ai/ha + COC 1% v/v POST,0.81 mg/g dw
same,Sugar content Maltose,[3]; 210 g ai/ha + COC 1% v/v POST,1.06 mg/g dw
same,Sugar content Fructose,[3]; 210 g ai/ha + COC 1% v/v POST,2.24 mg/g dw
same,Sugar content Glucose,[3]; 210 g ai/ha + COC 1% v/v POST,3.93 mg/g dw
same,Sugar content Sucrose,[3]; 210 g ai/ha + COC 1% v/v POST,21.79 mg/g dw
